From PMC12163822, “Synthesis and Pharmacological Characterization of a Novel Cannabinoid Receptor 1 Antagonist” (ACS Omega, 2025)

Each molecule was assayed against cannabinoid receptors (assay: [3H]CP55,940 competition binding in rat brain cortex membrane homogenates). Conditions: competition vs 0.5 nM [3H]CP55,940, rat brain cortex membranes, one-site fit; read-out: IC50.
Parameters: species or system Sprague-Dawley rat
Procedure: Sprague–Dawley rats (n = 5) were anesthetized and sacrificed by decapitation. Spleens and brains were then quickly removed by dissection at 4 °C, and in the case of the brain tissue, the cortex was dissected for the preparation of the membrane homogenates. For this procedure, spleen and cortex samples were homogenized using a Teflon-glass grinder (15 up-and-down strokes at 800 rpm) in 30 volumes of homogenization buffer (1 mM EGTA, 3 mM MgCl2, 50 mM Tris–HCl; pH 7.4) supplemented with […], at 4 °C. The obtained homogenates were centrifuged for 5 min at 1500 rpm. Pellets were removed, and supernatants were centrifuged again for 15 min at 14,000 rpm. For washing, the obtained pellets were resuspended in a buffer and centrifuged again, and the supernatant was removed. The resulting aliquots were stored at −80 °C until use.
To stop the reaction, an ice-cold wash buffer (50 mM Tris–HCl and 0.5% BSA, pH 7.4) was added. Then, the membranes were retained by vacuum filtration to a Whatman GF/C glass microfiber filter (Sigma-Aldrich, St. Louis, MO, USA) and the free radioligand was discarded. Filters with the bound radioligand were transferred to vials containing 5 mL of Ultima Gold cocktail (Revvity, Boston, MA, USA) and measured with a Packard Tri-Carb 2200CA liquid scintillation counter (Revvity, Boston, MA, USA).
Data from radioligand affinity assays were analyzed by using nonlinear regression. A comparison of fits was performed for every curve and the preferred model (one site vs two sites) was chosen in each case. Curves were fitted to the pooled data from multiple experiments. For the evaluation of data from autoradiographic assays, the Kruskal–Wallis test followed by Dunn’s post hoc tests for multiple comparisons was performed. For statistical significance, the threshold was set at p = 0.05. The number of replicates or animal sample number used in each case is stated in the figure legends. GraphPad Prism 9 (GraphPad Software) was employed for data analysis and presentation.

| SMILES | IC50 [µM] |
| --- | --- |
| CCOC(=O)/C=C1\C(=O)Nc2ccc(F)cc2-c2c1c1cc(C)ccc1n2C(=O)OCC [UVI3503] | > 10 |
| O=C(O)CC1C(=O)Nc2ccccc2-c2[nH]c3ccccc3c21 (stereo not shown) [UVI3504] | 5.908 ± 0.00718 |
| CCOC(=O)CC1C(=O)Nc2ccccc2-c2[nH]c3ccccc3c21 (stereo not shown) [UVI3505] | 0.00885 ± 0.0146 |
| O=C(O)/C=C1\C(=O)Nc2ccccc2-c2[nH]c3ccccc3c21 [UVI3506] | 7.041 ± 0.018 |
| CCOC(=O)/C=C1\C(=O)Nc2ccccc2-c2c1c1ccccc1n2C(=O)OCC [UVI3508] | 310 |
| COc1ccc2[nH]c3c(c2c1)/C(=C/C(=O)O)C(=O)Nc1ccc(C)cc1-3 [UVI3509] | > 10 |
| CCOC(=O)CC1c2c([nH]c3ccccc23)-c2ccccc2-n2c(C)nnc21 (stereo not shown) [UVI8113] | 0.0106 |
